{"source": "patent US9302999B2", "about": "“Substituted triazoles as herbicides” (E. I. DU PONT DE NEMOURS AND COMPANY, priority 2012, dated 2016)", "type_in_all_cases": "in vivo", "key": {"[1]": {"test_system": "morningglory (Ipomoea spp.)", "experiment": "Test A pre-/postemergence: morningglory", "conditions": "for Morningglory plant response rating: Postemergence; for Plant response rating, Morningglory: Preemergence", "summary_of_the_method": "(§1)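 Soil medium was loam blended with sand; treatments pre- and postemergence were applied concurrently, postemergence at one- to two-leaf stage. Approximately ten days in greenhouse preceded visual comparison with untreated controls, scored 0 (no effect) to 100 (complete control).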"}, "[2]": {"test_system": "crabgrass, large (large crabgrass, Digitaria sanguinalis)", "experiment": "Test A pre-/postemergence: crabgrass, large", "conditions": "for Crabgrass, Large plant response rating: Postemergence; for Plant response rating, Crabgrass, Large: Preemergence", "summary_of_the_method": "as §1"}, "[3]": {"test_system": "sedge, umbrella (small-flower umbrella sedge, Cyperus difformis)", "experiment": "Test C flooded paddy test: sedge, umbrella", "conditions": "scale 0 to 100 (0 no effect, 100 complete control)", "summary_of_the_method": "(§2)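 2-leaf stage plants; pots flooded 3 cm above soil; compound applied into paddy water, depth maintained. Greenhouse 13–15 d. Visual rating vs controls, 0–100 (0 = no effect, 100 = complete control); dash = no result.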"}, "[4]": {"test_system": "velvetleaf (Abutilon theophrasti)", "experiment": "Test A pre-/postemergence: velvetleaf", "conditions": "for Velvetleaf plant response rating: Postemergence; for Plant response rating, Velvetleaf: Preemergence", "summary_of_the_method": "as §1"}, "[5]": {"test_system": "rice (Oryza sativa)", "experiment": "Test C flooded paddy test: rice", "conditions": "scale 0 to 100 (0 no effect, 100 complete control)", "summary_of_the_method": "as §2"}, "[6]": {"test_system": "foxtail, giant (giant foxtail, Setaria faberii)", "experiment": "Test A pre-/postemergence: foxtail, giant", "conditions": "for Foxtail, Giant plant response rating: Postemergence; for Plant response rating, Foxtail, Giant: Preemergence", "summary_of_the_method": "as §1"}, "[7]": {"test_system": "corn (Zea mays)", "experiment": "Test A pre-/postemergence: corn", "conditions": "for Corn plant response rating: Postemergence; for Plant response rating, Corn: Preemergence", "summary_of_the_method": "as §1"}, "[8]": {"test_system": "ducksalad (Heteranthera limosa)", "experiment": "Test C flooded paddy test: ducksalad", "conditions": "scale 0 to 100 (0 no effect, 100 complete control)", "summary_of_the_method": "as §2"}, "[9]": {"test_system": "barnyardgrass (Echinochloa crus-galli)", "experiment": "Test A pre-/postemergence: barnyardgrass", "conditions": "for Barnyardgrass plant response rating: Postemergence; for Plant response rating, Barnyardgrass: Preemergence", "summary_of_the_method": "as §1"}, "[10]": {"test_system": "barnyardgrass (Echinochloa crus-galli)", "experiment": "Test C flooded paddy test: barnyardgrass", "conditions": "scale 0 to 100 (0 no effect, 100 complete control)", "summary_of_the_method": "as §2"}, "[11]": {"test_system": "pigweed (Amaranthus retroflexus)", "experiment": "Test A pre-/postemergence: pigweed", "conditions": "for Pigweed plant response rating: Postemergence; for Plant response rating, Pigweed: Preemergence", "summary_of_the_method": "as §1"}, "[12]": {"test_system": "wheat (Triticum aestivum)", "experiment": "Test A pre-/postemergence: wheat", "conditions": "for Wheat plant response rating: Postemergence; for Plant response rating, Wheat: Preemergence", "summary_of_the_method": "as §1"}, "[13]": {"conditions": "125 g ai/ha, 0 to 100 scale, 0 is no effect, 100 is complete control"}, "[14]": {"conditions": "500 g ai/ha, visual rating on 0 to 100 scale (0 no effect, 100 complete control), approximately ten days"}, "[15]": {"conditions": "125 g ai/ha, 0 to 100 scale (0 no effect, 100 complete control)"}, "[16]": {"conditions": "500 g ai/ha, 0 to 100 scale, 0 is no effect, 100 is complete control"}, "[17]": {"conditions": "Flood (flooded paddy test), 125 g ai/ha, visual rating after 13 to 15 days"}, "[18]": {"conditions": "Flood (flooded paddy test), 250 g ai/ha, visual rating after 13 to 15 days"}}, "data": [{"smiles": "COc1nn(-c2ccc(C(F)(F)F)cc2)nc1C(C)(O)c1ccnc(C(F)(F)F)c1", "note": "(stereo not drawn) [Compound 79]", "values": [{"measurement": "Morningglory plant response rating", "setting": "[1]; [13]", "value": 0}, {"measurement": "Morningglory plant response rating", "setting": "[1]; [14]", "value": 0}, {"measurement": "Plant response rating, Morningglory", "setting": "[1]; [15]", "value": 0}, {"measurement": "Plant response rating, Morningglory", "setting": "[1]; [16]", "value": 0}, {"measurement": "Crabgrass, Large plant response rating", "setting": "[2]; [13]", "value": 0}, {"measurement": "Crabgrass, Large plant response rating", "setting": "[2]; [14]", "value": 0}, {"measurement": "Plant response rating, Crabgrass, Large", "setting": "[2]; [15]", "value": 0}, {"measurement": "Plant response rating, Crabgrass, Large", "setting": "[2]; [16]", "value": 0}, {"measurement": "Plant response rating, Sedge, Umbrella", "setting": "[3]; [17]", "value": 0}, {"measurement": "Plant response rating, Sedge, Umbrella", "setting": "[3]; [18]", "value": 0}, {"measurement": "Plant response rating, Sedge, Umbrella", "setting": "[3]; Flood, 31 g ai/ha", "value": 0}, {"measurement": "Plant response rating, Sedge, Umbrella", "setting": "[3]; Flood, 62 g ai/ha", "value": 0}, {"measurement": "Velvetleaf plant response rating", "setting": "[4]; [13]", "value": 0}, {"measurement": "Velvetleaf plant response rating", "setting": "[4]; [14]", "value": 0}, {"measurement": "Plant response rating, Velvetleaf", "setting": "[4]; [15]", "value": 0}, {"measurement": "Plant response rating, Velvetleaf", "setting": "[4]; [16]", "value": 0}, {"measurement": "Plant response rating, Rice", "setting": "[5]; [17]", "value": 0}, {"measurement": "Plant response rating, Rice", "setting": "[5]; [18]", "value": 0}, {"measurement": "Plant response rating, Rice", "setting": "[5]; Flood, 31 g ai/ha", "value": 0}, {"measurement": "Plant response rating, Rice", "setting": "[5]; Flood, 62 g ai/ha", "value": 0}, {"measurement": "Foxtail, Giant plant response rating", "setting": "[6]; [13]", "value": 0}, {"measurement": "Foxtail, Giant plant response rating", "setting": "[6]; [14]", "value": 10}, {"measurement": "Plant response rating, Foxtail, Giant", "setting": "[6]; [15]", "value": 0}, {"measurement": "Plant response rating, Foxtail, Giant", "setting": "[6]; [16]", "value": 0}, {"measurement": "Corn plant response rating", "setting": "[7]; [13]", "value": 0}, {"measurement": "Corn plant response rating", "setting": "[7]; [14]", "value": 0}, {"measurement": "Plant response rating, Corn", "setting": "[7]; [15]", "value": 0}, {"measurement": "Plant response rating, Corn", "setting": "[7]; [16]", "value": 0}, {"measurement": "Plant response rating, Ducksalad", "setting": "[8]; [17]", "value": 0}, {"measurement": "Plant response rating, Ducksalad", "setting": "[8]; [18]", "value": 0}, {"measurement": "Plant response rating, Ducksalad", "setting": "[8]; Flood, 31 g ai/ha", "value": 0}, {"measurement": "Plant response rating, Ducksalad", "setting": "[8]; Flood, 62 g ai/ha", "value": 0}, {"measurement": "Barnyardgrass plant response rating", "setting": "[9]; [13]", "value": 0}, {"measurement": "Barnyardgrass plant response rating", "setting": "[9]; [14]", "value": 0}, {"measurement": "Plant response rating, Barnyardgrass", "setting": "[9]; [15]", "value": 0}, {"measurement": "Plant response rating, Barnyardgrass", "setting": "[9]; [16]", "value": 0}, {"measurement": "Plant response rating, Barnyardgrass", "setting": "[10]; [17]", "value": 0}, {"measurement": "Plant response rating, Barnyardgrass", "setting": "[10]; [18]", "value": 0}, {"measurement": "Plant response rating, Barnyardgrass", "setting": "[10]; Flood, 31 g ai/ha", "value": 0}, {"measurement": "Plant response rating, Barnyardgrass", "setting": "[10]; Flood, 62 g ai/ha", "value": 0}, {"measurement": "Pigweed plant response rating", "setting": "[11]; [13]", "value": 0}, {"measurement": "Pigweed plant response rating", "setting": "[11]; [14]", "value": 0}, {"measurement": "Plant response rating, Pigweed", "setting": "[11]; [15]", "value": 0}, {"measurement": "Plant response rating, Pigweed", "setting": "[11]; [16]", "value": 0}, {"measurement": "Wheat plant response rating", "setting": "[12]; [13]", "value": 0}, {"measurement": "Wheat plant response rating", "setting": "[12]; [14]", "value": 0}, {"measurement": "Plant response rating, Wheat", "setting": "[12]; [15]", "value": 0}, {"measurement": "Plant response rating, Wheat", "setting": "[12]; [16]", "value": 0}]}, {"smiles": "COc1nn(-c2ccc(C(F)(F)F)cc2)nc1C(F)c1ccnc(C(F)(F)F)c1", "note": "(stereo not drawn) [Compound 80]", "values": [{"measurement": "Morningglory plant response rating", "setting": "[1]; [13]", "value": 40}, {"measurement": "Morningglory plant response rating", "setting": "[1]; [14]", "value": 90}, {"measurement": "Plant response rating, Morningglory", "setting": "[1]; [15]", "value": 0}, {"measurement": "Plant response rating, Morningglory", "setting": "[1]; [16]", "value": 60}, {"measurement": "Crabgrass, Large plant response rating", "setting": "[2]; [13]", "value": 40}, {"measurement": "Crabgrass, Large plant response rating", "setting": "[2]; [14]", "value": 80}, {"measurement": "Plant response rating, Crabgrass, Large", "setting": "[2]; [15]", "value": 90}, {"measurement": "Plant response rating, Crabgrass, Large", "setting": "[2]; [16]", "value": 100}, {"measurement": "Plant response rating, Sedge, Umbrella", "setting": "[3]; [17]", "value": 0}, {"measurement": "Plant response rating, Sedge, Umbrella", "setting": "[3]; [18]", "value": 70}, {"measurement": "Plant response rating, Sedge, Umbrella", "setting": "[3]; Flood, 31 g ai/ha", "value": 0}, {"measurement": "Plant response rating, Sedge, Umbrella", "setting": "[3]; Flood, 62 g ai/ha", "value": 0}, {"measurement": "Velvetleaf plant response rating", "setting": "[4]; [13]", "value": 80}, {"measurement": "Velvetleaf plant response rating", "setting": "[4]; [14]", "value": 100}, {"measurement": "Plant response rating, Velvetleaf", "setting": "[4]; [15]", "value": 30}, {"measurement": "Plant response rating, Velvetleaf", "setting": "[4]; [16]", "value": 70}, {"measurement": "Plant response rating, Rice", "setting": "[5]; [17]", "value": 0}, {"measurement": "Plant response rating, Rice", "setting": "[5]; [18]", "value": 0}, {"measurement": "Plant response rating, Rice", "setting": "[5]; Flood, 31 g ai/ha", "value": 0}, {"measurement": "Plant response rating, Rice", "setting": "[5]; Flood, 62 g ai/ha", "value": 0}, {"measurement": "Foxtail, Giant plant response rating", "setting": "[6]; [13]", "value": 30}, {"measurement": "Foxtail, Giant plant response rating", "setting": "[6]; [14]", "value": 80}, {"measurement": "Plant response rating, Foxtail, Giant", "setting": "[6]; [15]", "value": 90}, {"measurement": "Plant response rating, Foxtail, Giant", "setting": "[6]; [16]", "value": 100}, {"measurement": "Corn plant response rating", "setting": "[7]; [13]", "value": 20}, {"measurement": "Corn plant response rating", "setting": "[7]; [14]", "value": 20}, {"measurement": "Plant response rating, Corn", "setting": "[7]; [15]", "value": 0}, {"measurement": "Plant response rating, Corn", "setting": "[7]; [16]", "value": 10}, {"measurement": "Plant response rating, Ducksalad", "setting": "[8]; [17]", "value": 0}, {"measurement": "Plant response rating, Ducksalad", "setting": "[8]; [18]", "value": 0}, {"measurement": "Plant response rating, Ducksalad", "setting": "[8]; Flood, 31 g ai/ha", "value": 0}, {"measurement": "Plant response rating, Ducksalad", "setting": "[8]; Flood, 62 g ai/ha", "value": 0}, {"measurement": "Barnyardgrass plant response rating", "setting": "[9]; [13]", "value": 30}, {"measurement": "Barnyardgrass plant response rating", "setting": "[9]; [14]", "value": 70}, {"measurement": "Plant response rating, Barnyardgrass", "setting": "[9]; [15]", "value": 20}, {"measurement": "Plant response rating, Barnyardgrass", "setting": "[9]; [16]", "value": 70}, {"measurement": "Plant response rating, Barnyardgrass", "setting": "[10]; [17]", "value": 0}, {"measurement": "Plant response rating, Barnyardgrass", "setting": "[10]; [18]", "value": 20}, {"measurement": "Plant response rating, Barnyardgrass", "setting": "[10]; Flood, 31 g ai/ha", "value": 0}, {"measurement": "Plant response rating, Barnyardgrass", "setting": "[10]; Flood, 62 g ai/ha", "value": 0}, {"measurement": "Pigweed plant response rating", "setting": "[11]; [13]", "value": 100}, {"measurement": "Pigweed plant response rating", "setting": "[11]; [14]", "value": 100}, {"measurement": "Plant response rating, Pigweed", "setting": "[11]; [15]", "value": 100}, {"measurement": "Plant response rating, Pigweed", "setting": "[11]; [16]", "value": 100}, {"measurement": "Wheat plant response rating", "setting": "[12]; [13]", "value": 20}, {"measurement": "Wheat plant response rating", "setting": "[12]; [14]", "value": 40}, {"measurement": "Plant response rating, Wheat", "setting": "[12]; [15]", "value": 0}, {"measurement": "Plant response rating, Wheat", "setting": "[12]; [16]", "value": 40}]}]}
